Laboratory results: patent US12173018B2, “Penicillin-binding protein inhibitors” (priority 2018, dated 2024)
Values after ≈ are worked out from the molar mass of the structure shown. Counter-ions that a name gives are not always drawn. Like-named read-outs stand apart in the source and are kept apart here.

How the values were obtained:
[1] = system: engineered strain of Escherichia coli harboring CTX-M15; test: microbe, parasite or virus in culture; type: cell-based; details: for MIC: Escherichia coli, read-out: Microbiological Activity (MIC in mg/L), E. coli DH5α/pLBII-CTX-M15, engineered strain producing CTX-M15
Experimental: (§1) Briefly, cryo-preserved bacterial cultures of challenge strains are streaked for isolation on appropriate agar medium, in this case Mueller Hinton II agar. Following incubation to allow growth of the colonies, plates are sealed with parafilm and stored refrigerated for up to two weeks. For preparation of assay inoculum and to ensure low variability, at least 5 colonies are picked from the agar plates with an inoculating loop and aseptically transferred to a culture tube containing 3 mL of Mueller-Hinton Broth (supplemented with divalent cations to required levels based on Manufacturers' certification). The broth culture is grown for 3-5 hours at 37° C. with shaking at 200 rpm. Meanwhile, 2-fold serial dilutions of test compounds are conducted in a 96 well plate with a final volume of 75 μL per well at 2-fold the final desired concentration. After the dilution plates are set up the growing cultures are then diluted in a cuvette containing MH II broth and the optical density is measured at 600 nm. The Inoculum is diluted such that 75 μL of this culture in Mueller-Hinton Broth results in a starting bacterial concentration of 5×10^5 CFU/mL when added to the dilution plates. The plates are incubated for 16-20 hours at 37° C. The MIC values are read visually as the lowest concentration well with no bacterial growth.
To determine if test compounds were affected by CTX-M15, the most abundant extended spectrum […] in clinical settings worldwide, the inhibition of the growth of an engineered strain of Escherichia coli harboring CTX-M15 was tested. This strain was constructed by cloning the gene encoding CTX-M15 into the NdeI and BamHI restriction endonuclease sites of plasmid pLBII, placing the gene(s) under the control of the Lac promoter. The constructed expression plasmid for CTX-M15 was used to transform competent E. coli DH5α cells to make the engineered strain, including an empty pLBII vector control strain. The classic cell based broth microdilution MIC assay was employed as described above with the addition of control antibiotics, known to be degraded by β-lactamases (Ceftazidime, piperacillin and piperacillin+tazobactam).

[2] = biological target: E. coli PBP3 (Escherichia coli (strain K12), UniProt P0AD68); test: E. coli PBP3 Bocillin-FL fluorescence polarization competition binding assay
Outline: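 Steps: purified PBP (1.5 μM final) mixed with compound (0–1000 μM) in 50 mM Hepes pH 8.0, 300 mM NaCl, 5% glycerol; Bocillin-FL added to 0.1 μM; FP (ex 490, em 520 nm) followed for 60 min. Concentration reducing Bocillin-FL binding reported as EC50.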

[3] = system: E. coli ATCC 25922; test: Broth microdilution MIC, E. coli ATCC 25922; type: cell-based; details: Escherichia coli
Experimental: (§2) To determine the ability of test compounds to potentiate the inhibition of the growth of bacterial strains, classic cell based broth microdilution minimum inhibitory concentration (MIC) assays were employed. MIC assays are performed according to CLSI methods except where otherwise noted (CLSI, 2011 and CLSI, 2009). The reference type strain E. coli ATCC 25922, the wild-type parent strain E. coli AG100, the hyper-permeable E. coli 901C and E. coli D22 and the E. coli AG100A strain lacking the acrAB efflux pump encoding genes were used to determine the ability of the PBP inhibitors to penetrate the outer membrane of gram-negative bacteria and inhibit bacterial growth. […] The P. aeruginosa PAO1, P. aeruginosa ATCC 27853 and A. baumannii ATCC 19606, along with the hyper-permeable P. aeruginosa ATCC 35151 and an engineered efflux pump-compromised strain of P. aeruginosa (ΔmexAB-oprM) were used to determine the ability of PBP inhibitors to penetrate the outer membrane of P. aeruginosa and A. baumannii and assess antibacterial activity against these important gram-negative organisms.
as §1

[4] = system: E. coli AG100; test: Broth microdilution MIC, E. coli AG100 (wild-type parent); type: cell-based; details: Escherichia coli; wild-type parent E. coli AG100, broth microdilution; read-out: MIC E. coli AG100
Experimental: To determine the ability of test compounds to potentiate the inhibition of the growth of bacterial strains, classic cell based broth microdilution minimum inhibitory concentration (MIC) assays were employed.
as §1

[5] = system: K. pneumoniae 848844; test: microbe, parasite or virus in culture; type: cell-based, Klebsiella pneumoniae; details: Klebsiella pneumoniae; K. pneumoniae 848844 producing SHV-11 and KPC-2; read-out: MIC K. pneumoniae 848844
Experimental: as §2, §1

[6] = system: E. coli AG100A; test: microbe, parasite or virus in culture; type: cell-based; details: Escherichia coli, read-out: MIC E. coli AG100A
Experimental: as §2, §1

[7] = system: K. pneumoniae UMM; test: microbe, parasite or virus in culture; type: cell-based; details: Klebsiella pneumoniae; K. pneumoniae UMM producing SHV-5 and KPC-2; read-out: MIC K. pneumoniae UMM
Experimental: as §2, §1

[8] = system: E. coli 901C; test: microbe, parasite or virus in culture; type: cell-based; details: Escherichia coli; hyper-permeable E. coli 901C, broth microdilution; read-out: MIC E. coli 901C
Experimental: as §2, §1

[9] = system: K. pneumoniae SI-117; test: microbe, parasite or virus in culture; type: cell-based; details: Klebsiella pneumoniae, SI117, read-out: MIC K. pneumoniae SI-117
Experimental: as §2, §1

[10] = system: E. coli D22; test: microbe, parasite or virus in culture; type: cell-based; details: Escherichia coli; hyper-permeable E. coli D22, broth microdilution; read-out: MIC E. coli D22
Experimental: as §2, §1

[11] = fluorescence polarization competition binding with Bocillin-FL, read-out: E. coli K12 PBP3 Potency
[12] = ATCC25922, E. coli ATCC 25922, broth microdilution, read-out: MIC E. coli 25922

E. coli PBP3, sequence (P0AD68 whole entry): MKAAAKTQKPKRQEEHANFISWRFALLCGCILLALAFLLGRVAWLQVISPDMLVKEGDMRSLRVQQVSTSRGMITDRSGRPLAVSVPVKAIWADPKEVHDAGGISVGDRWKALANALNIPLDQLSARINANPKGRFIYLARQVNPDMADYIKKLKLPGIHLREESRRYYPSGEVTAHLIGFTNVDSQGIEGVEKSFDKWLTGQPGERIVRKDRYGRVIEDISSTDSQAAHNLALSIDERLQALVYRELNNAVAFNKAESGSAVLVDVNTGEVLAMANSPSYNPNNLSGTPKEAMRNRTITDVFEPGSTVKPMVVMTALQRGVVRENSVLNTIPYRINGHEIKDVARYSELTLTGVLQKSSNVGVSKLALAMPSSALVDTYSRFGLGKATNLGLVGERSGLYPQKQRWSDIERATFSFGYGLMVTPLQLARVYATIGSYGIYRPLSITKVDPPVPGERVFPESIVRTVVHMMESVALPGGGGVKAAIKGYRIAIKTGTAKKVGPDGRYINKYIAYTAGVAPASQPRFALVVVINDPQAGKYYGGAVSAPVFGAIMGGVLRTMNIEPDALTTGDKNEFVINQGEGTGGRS

**Q.** `CCN1CCN(C(=O)NC(C(=O)N[C@H]2Cc3cccc(C(=O)O)c3OB2O)c2c(C)n[nH]c2C)C(=O)C1=O` (stereo partly drawn) [Example 54, (3R)-3-(2-(3,5-dimethyl-1H-pyrazol-4-yl)-2-(4-ethyl-2,3-dioxopiperazine-1-carboxamido)acetamido)-2-hydroxy-3,4-dihydro-2H-benzo[e][1,2]oxaborinine-8-carboxylic acid, trifluoroacetic acid salt] was tested. Which MIC [1] did it give?
**A.** 128 to 256 mg/L

**Q.** And the EC50 [2]?
**A.** 30 to 500 µM

**Q.** What does the source list for `CCN1CCN(C(=O)NC(C(=O)N[C@H]2Cc3cccc(C(=O)O)c3OB2O)C2CCNC2)C(=O)C1=O` (stereo partly drawn) [Example 55, (3R)-3-(2-(4-ethyl-2,3-dioxopiperazine-1-carboxamido)-2-(pyrrolidin-3-yl)acetamido)-2-hydroxy-3,4-dihydro-2H-benzo[e][1,2]oxaborinine-8-carboxylic acid, trifluoroacetic acid salt]?
**A.** MIC [1]: 128 to 256 mg/L; EC50 [2, 11]: > 500 µM

**Q.** Which MIC [1] does the source give for `CCN1CCN(C(=O)NC(C(=O)N[C@H]2Cc3cccc(C(=O)O)c3OB2O)C2CCN(CC(N)=O)C2)C(=O)C1=O` (stereo partly drawn) [Example 57, (3R)-3-(2-(1-(2-amino-2-oxoethyl)pyrrolidin-3-yl)-2-(4-ethyl-2,3-dioxopiperazine-1-carboxamido)acetamido)-2-hydroxy-3,4-dihydro-2H-benzo[e][1,2]oxaborinine-8-carboxylic acid, trifluoroacetic acid salt] here?
**A.** 128 to 256 mg/L

**Q.** What about the EC50 [2, 11] of the same compound?
**A.** > 500 µM

**Q.** With `O=C(O)c1cccc2c1OB(O)[C@@H](NC(=O)C(NC(=O)c1c[nH]c3cccnc3c1=O)c1ccc(O)c(O)c1Cl)C2` (stereo partly drawn) [Example 59, (3R)-3-(2-(2-chloro-3,4-dihydroxyphenyl)-2-(4-oxo-1,4-dihydro-1,5-naphthyridine-3-carboxamido)acetamido)-2-hydroxy-3,4-dihydro-2H-benzo[e][1,2]oxaborinine-8-carboxylic acid] as the compound, how does the MIC [1] read?
**A.** 128 to 256 mg/L (≈ 221 to 442 µM)

**Q.** Which MIC [1] does the source give for `CCN1CCN(C(=O)NC(C(=O)N[C@H]2Cc3cccc(C(=O)O)c3OB2O)c2ccc(N3CCOCC3)cc2)C(=O)C1=O` (stereo partly drawn) [Example 61, (3R)-3-(2-(4-ethyl-2,3-dioxopiperazine-1-carboxamido)-2-(4-morpholinophenyl)acetamido)-2-hydroxy-3,4-dihydro-2H-benzo[e][1,2]oxaborinine-8-carboxylic acid] here?
**A.** 128 to 256 mg/L (≈ 216 to 431 µM)

**Q.** How did the MIC [1] turn out when `CCN1CCN(C(=O)N[C@@H](C(=O)N[C@H]2Cc3cccc(C(=O)O)c3OB2O)C2(CO)CC2)C(=O)C1=O` [Example 62, (R)-3-((R)-2-(4-ethyl-2,3-dioxopiperazine-1-carboxamido)-2-(1-(hydroxymethyl)cyclopropyl)acetamido)-2-hydroxy-3,4-dihydro-2H-benzo[e][1,2]oxaborinine-8-carboxylic acid] was run?
**A.** 32 to 64 mg/L (≈ 63.7 to 127 µM)

**Q.** How did the MIC [1] turn out when `CCN1CCN(C(=O)N[C@@H](C(=O)N[C@H]2Cc3cccc(C(=O)O)c3OB2O)[C@@H](C)OCC(N)=O)C(=O)C1=O` [Example 66, (R)-3-((2R,3R)-3-(2-amino-2-oxoethoxy)-2-(4-ethyl-2,3-dioxopiperazine-1-carboxamido)butanamido)-2-hydroxy-3,4-dihydro-2H-benzo[e][1,2]oxaborinine-8-carboxylic acid] was run?
**A.** 32 to 64 mg/L (≈ 60 to 120 µM)

**Q.** And the EC50 [2]?
**A.** 30 to 500 µM

**Q.** Which MIC [1] does the source give for `CCN1CCN(C(=O)NC(C(=O)N[C@H]2Cc3cccc(C(=O)O)c3OB2O)C(CO)CNS(N)(=O)=O)C(=O)C1=O` (stereo partly drawn) [Example 79, (3R)-3-(2-(4-ethyl-2,3-dioxopiperazine-1-carboxamido)-4-hydroxy-3-((sulfamoylamino)methyl)butanamido)-2-hydroxy-3,4-dihydro-2H-benzo[e][1,2]oxaborinine-8-carboxylic acid] here?
**A.** 32 to 64 mg/L (≈ 54.8 to 110 µM)

**Q.** For `CCN1CCN(C(=O)NC(C(=O)N[C@H]2Cc3cccc(C(=O)O)c3OB2O)C(CCl)CNS(N)(=O)=O)C(=O)C1=O` (stereo partly drawn) [Example 80, (3R)-3-(4-chloro-2-(4-ethyl-2,3-dioxopiperazine-1-carboxamido)-3-((sulfamoylamino)methyl)butanamido)-2-hydroxy-3,4-dihydro-2H-benzo[e][1,2]oxaborinine-8-carboxylic acid], which MIC [1] is on record?
**A.** 128 to 256 mg/L (≈ 212 to 425 µM)

**Q.** What does the source list for `O=C(O)c1cccc2c1OB(O)[C@@H](NC(=O)C(NC(=O)c1c[nH]ccc1=O)c1ncc(O)cc1F)C2` (stereo partly drawn) [Example 219, (3R)-3-(2-(3-fluoro-5-hydroxypyridin-2-yl)-2-(4-oxo-1,4-dihydropyridine-3-carboxamido)acetamido)-2-hydroxy-3,4-dihydro-2H-benzo[e][1,2]oxaborinine-8-carboxylic acid]?
**A.** MIC ([3]; ATCC25922, read-out: MIC E. coli 25922): > 128 µg/mL; MIC [4]: > 128 µg/mL; EC50 [2]: < 30 µM; MIC [5]: > 128 µg/mL; MIC [6]: 8 to 16 µg/mL; MIC [7]: 32 to 64 µg/mL; MIC [8]: 2 to 4 µg/mL; MIC [9]: 32 to 64 µg/mL; MIC [10]: 8 to 16 µg/mL

**Q.** Which results are given for `NCCN1CCN(C(=O)N[C@H](C(=O)N[C@H]2Cc3cccc(C(=O)O)c3OB2O)c2ccc(O)c(O)c2Cl)C(=O)C1=O` [Example 221, (R)-3-((S)-2-(4-(2-aminoethyl)-2,3-dioxopiperazine-1-carboxamido)-2-(2-chloro-3,4-dihydroxyphenyl)acetamido)-2-hydroxy-3,4-dihydro-2H-benzo[e][1,2]oxaborinine-8-carboxylic acid]?
**A.** MIC [3, 12]: > 128 µg/mL; MIC [4]: 8 to 16 µg/mL; EC50 [2]: 30 to 500 µM; MIC [5]: 32 to 64 µg/mL; MIC [6]: 8 to 16 µg/mL; MIC [7]: 8 to 16 µg/mL; MIC [8]: 8 to 16 µg/mL; MIC [9]: 32 to 64 µg/mL; MIC [10]: 8 to 16 µg/mL

**Q.** How did the MIC [3, 12] turn out when `NCCN1CCN(C(=O)N[C@H](C(=O)N[C@H]2Cc3cccc(C(=O)O)c3OB2O)c2ncc(O)cc2F)C(=O)C1=O` [Example 226, (R)-3-((S)-2-(4-(2-aminoethyl)-2,3-dioxopiperazine-1-carboxamido)-2-(3-fluoro-5-hydroxypyridin-2-yl)acetamido)-2-hydroxy-3,4-dihydro-2H-benzo[e][1,2]oxaborinine-8-carboxylic acid] was run?
**A.** > 128 µg/mL

**Q.** And the MIC [4]?
**A.** 32 to 64 µg/mL

**Q.** What about the EC50 [2] of the same compound?
**A.** 30 to 500 µM

**Q.** What about the MIC [5] of the same compound?
**A.** > 128 µg/mL

**Q.** And the MIC [6]?
**A.** 8 to 16 µg/mL

**Q.** And the MIC [7]?
**A.** 32 to 64 µg/mL

**Q.** And the MIC [8]?
**A.** 2 to 4 µg/mL

**Q.** What about the MIC [9] of the same compound?
**A.** > 128 µg/mL

**Q.** And the MIC [10]?
**A.** 8 to 16 µg/mL

**Q.** Which results are given for `CC(C)(O/N=C(\C(=O)N[C@@H]1C(=O)N2C(C(=O)[O-])=C(C[n+]3ccccc3)CS[C@H]12)c1csc(N)n1)C(=O)O` [ceftazidime, reference compound]?
**A.** MIC in CTX-M15 producer compared with parent strain with empty pLBII plasmid ([1]; engineered E. coli DH5α with CTX-M15 vs empty vector control): weaker MICs in the CTX-M15 producer; Microbiological Activity (MIC in mg/L), E. coli DH5α/pLBII-CTX-M15 ([1]; engineered strain producing CTX-M15): D (D represents an MIC from 8 to 16 μg/mL)
